Measurements from patent US20090053509A1, “Mixed solubility borate preservative” (U.S. Borax Inc., priority 2000, published 2009).

Assays:
mold [1] = test: Mold exposure test on aspen OSB, modified ASTM D 3273-94 (Example 2); type: cell-based; conditions: for Mold Formation Rating: 4 weeks; for Mold Formation Rating, Average: average over boards and soluble borates
Protocol: The effectiveness of the mixed solubility wood preservatives of this invention against mold growth was tested on samples of aspen oriented strand board (OSB). Two OSB formulations were evaluated. One type was bonded with pMDI resin at a 6% loading. The other type was bonded with a PF resin face and a pMDI resin core. The OSB samples contained either a mixed solubility borate preservative formulation or a low solubility borate alone, or no preservative in the case of the control samples. The low solubility borate in all cases was zinc borate 2:3:3.5. The two different high solubility borates were tested—disodium octaborate tetrahydrate (DOT) and boric oxide (B2O3), also known as anhydrous boric acid (ABA). The weight ratio of low solubility borate to high solubility borate in the mixed solubility samples was either 80/20 or 60/40. Two different target loadings of preservative in the OSB samples were tested—0.18% and 0.88% by weight.
(§1) Mold exposure testing was carried out using a modified version of the ASTM: D 3273-94 procedure. Exposure of the OSB samples to mold was done in an experimental chamber consisting of a 597 mm×311 mm×413 mm plastic container tilted on its side to give a 45° roof angle to prevent condensate dripping on the samples and filled with 2-3 inches of water. The water was heated to 32.5° C. (±1° C.), using a thermostatically controlled heating coil. A 292 mm×394 mm×133 mm plastic bowl was filled to within 3 inches from the top with a mixture of damp potting soil and unsterile soil collected from outdoors to provide an inoculum source for mold. The bowl was floated in the plastic container. The boards were placed on a plastic mesh above the inoculum source. The blocks were inverted at one week intervals. The test ran for a duration of 4 weeks.
After the four week mold exposure, the samples were examined visually and rated for mold formation on a scale of 0 to 4, with 0 representing no mold formation (i.e. complete control) and 4 representing complete coverage or overgrowth of the sample by mold. […] With regard to the ratio of high solubility borate to low solubility borate, the samples containing 40% soluble borate (i.e. 60% zinc borate) provided a significant improvement over the samples containing 0% soluble borate (i.e. 100% zinc borate), on average.

mold [2] = test: Mold exposure test on aspen OSB with water repellant (Example 3); type: cell-based; conditions: scale 0-4; for Mold Formation Rating: 4 weeks, OSB pMDI 6%
Protocol: as §1
Another set of mold tests similar to Example 2 was carried out. Test samples consisted of Aspen OSB bonded with pMDI resin at a 6% loading. The OSB samples were treated with a hydrophobic resin 1% EW-58S, manufactured by Borden, which served as a water repellant. The preservative treated OSB samples contained either zinc borate alone or a mixture of zinc borate and DOT, at a 60/40 weight ratio. Target loadings of preservative were 0.05, 0.10 and 0.20% by weight in the OSB samples . The OSB test samples were cut into 76 mm×102 mm panels for use in the mold testing. Mold exposure testing was carried out using essentially the same method described in Example 2, except that the water was heated to 30.5° C. (±1° C.). The relative humidity within the environmental chamber was monitored and maintained at .95 to 99% with an average temperature of 27 to 30° C.
After the four week mold exposure, the samples were examined visually and rated for mold growth on a scale of 0 to 4, as in Example 2.

[3] = system: Formosan subterranean termite (Coptotermes formosanus Shiraki); test: Termite field test of aspen waferboards, Hilo; type: in vivo; conditions: 0.88% preservative
Excerpt: The performance of mixed solubility borate preservatives against termites was investigated in a study using aspen waferboards bonded with either 100% pMDI (in both face and core) or with Phenol Formaldehyde (PF) in the face and pMDI in the core. The boards were made with a target loading of 0.88% preservative utilizing the formulations (blends) described in Table 4. The borates were incorporated into the board by mixing the preservative formulations with the aspen wafers in a blender before addition of the adhesive and wax. Composite board specimens were exposed to the Formosan subterranean termite (Coptotermes formosanus Shiraki) at a field test site in Hilo, Hi. The specimens, along with untreated aspen ‘feeder’ stakes, are placed in a horizontal array on hollow core concrete blocks approximately 10 cm thick. In addition to surrounding the test specimens, the untreated feeder stakes are also driven into the ground in an effort to increase the termite pressure on the test specimens. The assembly is then covered with a wooden box to prevent direct contact with rain. This is a severe test format conducted using a very termite susceptible wood species (aspen).
After 3, 9 and 15 months exposure the boards were rated visually on a scale of 0 to 10 . A rating of 10 indicates the sample was in perfect condition, while a 0 rating means the sample was essentially destroyed. Each result consisted of an average rating from the inspection of 10 separate samples (10 replicates).

[4] = system: Coniophora puteana (brown rot); test: EN113 decay test of wood composites; type: cell-based; conditions: wood composite PF face/pMDI core; preservative loading 0.1% by weight; 12 weeks fungal decay exposure; eight samples
Protocol: Wood composite samples were made having a phenol-formaldehyde (PF) resin face and a diphenylmethanediisocyanate (pMDI) resin core. Some of the samples included a combination of the zinc borate, 2ZnO·3B2O3·3.5H2O, (ZB) and disodium octaborate tetrahydrate (DOT) and others contained ZB alone, while still others contained no wood preservative. The ZB/DOT combination formulations contained 60% ZB by weight and 40% DOT. The preservative compositions were added to the wood composite samples at a loading of 0.1% by weight of the wood composite. The samples were cut to 50 mm×25 mm×20 mm before testing. A total of eight samples from each treatment set were subjected to decay testing.
A total of eight samples from each treatment set were tested according to a standard European decay test protocol known as EN113. The samples were first sealed in plastic bags and gamma irradiated at a level of at a level of 2.0 Mrad using a ^60Co source to ensure sterilization prior to mono-culture decay testing.
Aqueous solutions of 2.0% malt and 2.0% agar were prepared and then autoclaved at 120° C. for 30 minutes. […]
The decay results are shown in Table 1, expressed as average percent weight loss of the wood composite samples after 12 weeks of fungal decay exposure.

With 2ZnO·3B2O3·3.5H2O [ZB only] the “Mold Formation Rating” value (mold [1]; scale 0 (no mold) to 4 (complete coverage), target borate loading 0.18 % BAE, board pMDI-6%, measured at Edges) was 2.00, the “Mold Formation Rating” value (mold [1]; scale 0-4, target borate loading 0.18 % BAE, board PF-pMDI, measured at Edges) was 2.00 and the “Mold Formation Rating” value (mold [1]; scale 0-4, target borate loading 0.18 % BAE, board PF-pMDI, measured at Faces) was 1.25. The “Mold Formation Rating” value (mold [1]; scale 0-4, target borate loading 0.18 % BAE, board pMDI-6%, measured at Faces) was 0.75, the “Mold Formation Rating” value (mold [1]; scale 0-4, target borate loading 0.88 % BAE, board PF-pMDI, measured at Edges) was 1.50 and the “Mold Formation Rating” value (mold [1]; scale 0-4, target borate loading 0.88 % BAE, board PF-pMDI, measured at Faces) was 0.75. For the same substance, the “Mold Formation Rating” value (mold [1]; scale 0-4, target borate loading 0.88 % BAE, board pMDI-6%, measured at Edges) was 0.75, the “Mold Formation Rating” value (mold [1]; scale 0-4, target borate loading 0.88 % BAE, board pMDI-6%, measured at Faces) was 0.00 and the “Mold Formation Rating, Average” value (mold [1]; scale 0-4, 0.18 % BAE, Edges) was 2.00. For the same substance, the “Mold Formation Rating, Average” value (mold [1]; scale 0-4, 0.18 % BAE, Faces) was 1.00, the “Mold Formation Rating, Average” value (mold [1]; scale 0-4, 0.88 % BAE, Edges) was 1.13 and the “Mold Formation Rating, Average” value (mold [1]; scale 0-4, 0.88 % BAE, Faces) was 0.38. For the same substance, the “Mold Formation Rating” value (mold [2]; target borate loading 0.05 % BAE, Edges) was 1.00, the “Mold Formation Rating” value (mold [2]; target borate loading 0.05 % BAE, Faces) was 1.00 and the “Mold Formation Rating” value (mold [2]; target borate loading 0.10 % BAE, Edges) was 3.33. For the same substance, the “Mold Formation Rating” value (mold [2]; target borate loading 0.10 % BAE, Faces) was 2.67, the “Mold Formation Rating” value (mold [2]; target borate loading 0.20 % BAE, Edges) was 2.33 and the “Mold Formation Rating” value (mold [2]; target borate loading 0.20 % BAE, Faces) was 1.00. For the same substance, the “Mold Formation Rating, Average” value (mold [2]; average over loadings 0.05-0.20 % BAE, Faces and Edges) was 1.89, the “Termites Ratings” value ([3]; scale 0 (destroyed) to 10 (perfect), board pMDI, 3 mos. exposure, average of 10 replicates) was 10 and the “Termites Ratings” value ([3]; scale 0-10, board PF/pMDI, 3 mos. exposure) was 10. The “Termites Ratings” value ([3]; scale 0-10, board PF/pMDI, 9 mos. exposure) was 9.5, the “Termites Ratings” value ([3]; scale 0-10, board PF/pMDI, 15 mos. exposure) was 9.7 and the “Termites Ratings” value ([3]; scale 0-10, board pMDI, 9 mos. exposure) was 9.8. The “Termites Ratings” value ([3]; scale 0-10, board pMDI, 15 mos. exposure) was 9.9 and the “Average % Wt. Loss” value [4] was 15.98%.
